Test results published in patent US5124167A, “Anti-oxidant compositions containing fat” (Bar-Ilan University, priority 1990, dated 1992).

Each molecule was assayed on skin of adult mice (level of peroxides) (assay: Peroxide level (TBA test) in skin of adult mice after cream application). Details: 0.1% dissolved in Oil of Olay, similar experiments.
Assay type: in vivo
Method: The plants that may be utilized as a source of the water soluble extract include the plant tissues of selected species such as the stems and green leaves selected from the group consisting of Spinacia, Trifolium, Medicago, Zea, Penicillaria, Algae, and Nicotiana. Other plants may be utilized if an aqueous extract of the green leaves provide an antioxidant effect when it is applied to skin. The antioxidant effect is determined by the thiobarbituric acid (TBA) test. This test is described in Food Res. V. 23, P 620 (1958). Generally the level of peroxide in the skin may be determined by assay of a sample of untreated skin which is peeled from a test animal. A preweighed sample of from 10 to 50 mg is homogenized in 0.2 M phosphate buffer pH 6.5 and centrifuged. The supernatant is collected and the peroxide level is determined using the TBA test. A sample of skin from the same animal which has been treated according to the invention is also peeled and the peroxide level is determined. A reduction in the peroxide level of about 35% when an antioxidant obtained from a plant is applied as 0.5% w/w dispersion in a petrolatum base is the criteria for determining if a given plant extract is useful according to the present invention.
Samples of creams and appropriate controls were applied to mice or rat skin for a fixed period. The application was done once a day. Experiments were terminated by killing the animals, peeling the skin and freezing it in liquid nitrogen. Samples of the frozen skin were homogenized in 0.2M phosphate buffer, pH 6.5. After centrifugation the supernatant was collected and analyzed for the peroxide value using the TBA (Thiobarbituric acid) test as described by Sinnhuber, et al. Food Res. V. 23, p 620 (1958).
In these experiments adult mice (2months old) were treated as described in Example 2. The grown mice were shaved before applying the creams to the skin.
In this experiment the antioxidant was dissolved in Oil of Olay. Mice were sacrificed after 21 days.

| Compound | effect on the level of peroxides in the skin |
| --- | --- |
| COc1ccc(O)c(C(C)(C)C)c1 [BHA, butylated hydroxy anisole] | no reduction of the peroxides was observed |
| Cc1cc(C(C)(C)C)c(O)c(C(C)(C)C)c1 [BHT, butylated hydroxy toluene] | no reduction of the peroxides was observed |
| Cc1c(C)c2c(c(C)c1O)CCC(C)(CCCC(C)CCCC(C)CCCC(C)C)O2 (stereo not drawn) [alpha tocopherol] | no reduction of the peroxides was observed |
